Assay results from patent US6835724B2, “Corticoid 17,21-dicarboxylic esters and corticosteroid 17-carboxylic ester 21-carbonic esters, processes for their preparation and pharmaceuticals containing these compounds” (Aventis Pharma Deutschland GmbH, priority 1993, dated 2004).

Experiments:
Carrageenan paw edema = assay: Systemic antiinflammatory effect following subcutaneous administration: Carrageenan paw edema in rats; type: in vivo, rat; settings: for Increase in volume: 6 hours after carrageenan, control 0.58 ± 0.16; for systemic activity: summary in words
Excerpt: 2 a) Examining for systemic antiinflammatory effect in the “antiinflammatory effect following subcutaneous administration: Carrageenan paw edema in rats” test. The carrageenan paw edema test in rats in accordance with the method described by Winter et al., Proc. Soc. exp. Biol. (New York) 111, 544 (1962) was chosen as the test for the acute systemic antiinflammatory effect. […] Controls were only given sesame oil. The paw volumes are given in ml, x±s.

gluconeogenesis = assay: Systemic effect: gluconeogenesis in adrenalectomized rats; settings: for Glycogen + glucose mg/100 g of liver: 6 hours, control 11.2 ± 1.7; for effect on new formation of glucose and glycogen: t test against control
Description: 2 b) Examining for systemic effect: gluconeogenesis in rats
A sensitive method for detecting systemic effects on carbohydrate metabolism is to examine the gluconeogenic effect of corticosteroids in the adrenalectomized rat.
Three days prior to the experiment, groups of in each case 6 rats are adrenalectomized under pentobarbital anesthesia and provided with 0.9% sodium chloride solution as drinking fluid. Two days later, i.e. 24 hours before initiating the experiment, the feed is removed in order to reduce the glycogen stores in the liver.
On the day of the experiment, the preparations under examination are administered subcutaneously, dissolved in sesame oil (2 ml/kg). Six hours later, the animals are decapitated, and in each case the liver is removed and 1 g thereof is taken up in 5 ml of 0.6 molar perchloric acid. After homogenization, the free glucose is measured in the supernatant from the centrifugation, while the centrifugation sediment (centrifugate; glycogen) is cleaved enzymically with amyloglucosidase, after which the glucose content is also measured in this fraction (Hexokinase method, Boehringer Mannheim).

rat croton oil ear edema = assay: Local antiinflammatory effect in rat croton oil ear edema following epicutaneous application; type: in vivo; settings: for Inhibition in % / x ± s (mg), weight difference of treated and untreated ear disks: 4 h; for x ± s (mg), weight difference of treated and untreated ear disks: TPA irritant, control 21.2 ± 5.1; for local antiinflammatory effect: summary in words
Description: 1. Local antiinflammatory effect in rat croton oil ear edema following epicutaneous application […] The left ear remained untreated. […] The corticoids under examination were dissolved in this solution in the given final concentrations. Controls only received the TPA/solvent mixture. The animals were sacrificed using CO2 4 h after the epicutaneous treatment. Disks measuring 8 mm in diameter were punched out of the right (treated) and the left (untreated) ears and weighed immediately.

Compound	Increase in volume (Carrageenan paw edema; 0.3 mg/kg s.c.)	Increase in volume (Carrageenan paw edema; 3.0 mg/kg s.c.)	systemic activity (Carrageenan paw edema)	Glycogen + glucose mg/100 g of liver (gluconeogenesis; 0.3 mg/kg s.c.)	effect on new formation of glucose and glycogen (gluconeogenesis; 0.3 mg/kg s.c.)	Glycogen + glucose mg/100 g of liver (gluconeogenesis; 3.0 mg/kg s.c.)	Inhibition in % (rat croton oil ear edema; 0.1 mg/ml epicutaneous)	x ± s (mg), weight difference of treated and untreated ear disks (rat croton oil ear edema; 0.1 mg/ml epicutaneous)	Inhibition in % (rat croton oil ear edema; 0.3 mg/ml epicutaneous)	x ± s (mg), weight difference of treated and untreated ear disks (rat croton oil ear edema; 0.3 mg/ml epicutaneous)	Inhibition in % (rat croton oil ear edema; 1.0 mg/ml epicutaneous)	x ± s (mg), weight difference of treated and untreated ear disks (rat croton oil ear edema; 1.0 mg/ml epicutaneous)	local antiinflammatory effect (rat croton oil ear edema)
C[C@]12C=CC(=O)C=C1CC[C@@H]1[C@@H]2[C@@H](O)C[C@@]2(C)[C@H]1CC[C@]2(OC(=O)c1ccccc1)C(=O)COC(=O)Cc1ccccc1 [Compound I, prednisolone 17-benzoate 21-phenylacetic ester]	0.46 ± 0.19 mL	0.38 ± 0.15 mL	weak	20.4 ± 11.7 n.s. mg/100 g of liver	still do not have any significant effect	96.0 ± 26.2 mg/100 g of liver	76%	5.0 ± 3.1 mg	85%	3.1 ± 2.5 mg	91%	2.0 ± 1.4 mg	strong
C[C@H]1C[C@H]2[C@@H]3CCC4=CC(=O)C=C[C@]4(C)[C@@]3(F)[C@@H](O)C[C@]2(C)[C@@]1(OC(=O)c1ccccc1)C(=O)COC(=O)Cc1ccccc1 [Compound II, betamethasone 17-benzoate 21-phenylacetic ester]	0.56 ± 0.09 mL	0.45 ± 0.14 mL	weak	10.8 ± 1.3 n.s. mg/100 g of liver	still do not have any significant effect	81.2 ± 61.7 mg/100 g of liver	67%	7.0 ± 3.3 mg	77%	4.9 ± 3.3 mg	95%	1.1 ± 0.9 mg	strong
CCOC(=O)O[C@]1(C(=O)COC(=O)CC)CC[C@H]2[C@@H]3CCC4=CC(=O)C=C[C@]4(C)[C@H]3[C@@H](O)C[C@@]21C [Prednicarbate, prednisolone 17-ethyl carbonate 21-propionate, reference compound]	0.36 ± 0.13 mL	0.09 ± 0.08 mL					75%	5.2 ± 3.3 mg	88%	2.6 ± 2.4 mg			
